In US20250230193A1, “CYCLIC COMPOUND HAVING SELECTIVE KRAS INHIBITORY EFFECT ON HRAS AND NRAS” (CHUGAI SEIYAKU KABUSHIKI KAISHA, priority 2022, published 2025):

How the values were obtained:
[1] = target: GDP-bound NRAS wild-type protein (Homo sapiens, UniProt P01111); test: Binding to NRAS by surface plasmon resonance (SPR), Single Cycle Kinetics; details: KD ratio NRAS/KRAS, class symbols
[2] = target: GDP-bound HRAS wild-type protein (Homo sapiens, UniProt P01112); test: Binding to HRAS by surface plasmon resonance (SPR), Single Cycle Kinetics; details: KD ratio HRAS/KRAS, class symbols
Sequence of GDP-bound HRAS wild-type protein (P01112 whole entry): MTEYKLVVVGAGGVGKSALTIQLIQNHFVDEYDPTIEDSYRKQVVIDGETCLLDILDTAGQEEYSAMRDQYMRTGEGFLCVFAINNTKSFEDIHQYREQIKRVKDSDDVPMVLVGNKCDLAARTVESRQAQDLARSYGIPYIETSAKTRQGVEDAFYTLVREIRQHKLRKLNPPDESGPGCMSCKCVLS

Sequence of GDP-bound NRAS wild-type protein (P01111 whole entry): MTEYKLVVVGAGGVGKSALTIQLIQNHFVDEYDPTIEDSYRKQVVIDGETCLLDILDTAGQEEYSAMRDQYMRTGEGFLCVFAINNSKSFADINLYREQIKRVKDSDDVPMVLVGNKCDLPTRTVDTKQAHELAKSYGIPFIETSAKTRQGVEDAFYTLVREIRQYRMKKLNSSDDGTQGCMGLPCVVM

SMILES | NRAS/KRAS (ratio of KD value with respect to GDP-bound NRAS wild-type protein to KD value with respect to KRAS) [1] | HRAS/KRAS (ratio of KD value with respect to GDP-bound HRAS wild-type protein to KD value with respect to KRAS) [2]
CCO[C@@H]1C[C@H]2C(=O)NC3(CC(C)(C)C3)C(=O)N(C)[C@@H](C3CCCC3)C(=O)N(C)[C@H](C(=O)N3CCCCC3)CC(=O)N(C)[C@@H](COC)C(=O)N[C@@H]([C@@H](C)CC)C(=O)N(C)CC(=O)N(C)[C@H]3C/C=C\CCN(C3=O)[C@@H](Cc3ccc(C(F)(F)F)cc3)C(=O)N(C)CC(=O)N[C@@H](CCc3ccc(Cl)c(Cl)c3)C(=O)N2C1 [PP2670] | AA (a compound having 20 or more is denoted as AA) | A (a compound having 10 or more and less than 20 is denoted as A)
CC[C@H](C)[C@@H]1NC(=O)[C@H](COC)N(C)C(=O)C[C@@H](C(=O)N2CCCCC2)N(C)C(=O)[C@H](C2CCCC2)N(C)C(=O)C2(CC(C)(C)C2)NC(=O)[C@@H]2C[C@@H](OC(C)C)CN2C(=O)[C@H](CCc2ccc(Cl)c(Cl)c2)NC(=O)CN(C)C(=O)[C@H](Cc2ccc(C(F)(F)F)cc2)N2CC/C=C\C[C@@H](C2=O)N(C)C(=O)CN(C)C1=O [PP2671] | A (a compound having 10 or more and less than 20 is denoted as A) | A (a compound having 10 or more and less than 20 is denoted as A)
CCO[C@@H]1C[C@H]2C(=O)NC3(CCC3)C(=O)N(C)[C@@H](C3CCCC3)C(=O)N(C)[C@H](C(=O)N(C)C)CC(=O)N(C)[C@@H](CC3CCCC3)C(=O)N[C@@H]([C@@H](C)CC)C(=O)N(C)CC(=O)N(C)[C@H]3C/C=C\CCN(C3=O)[C@@H](Cc3ccc(C)cc3)C(=O)N(C)CC(=O)N[C@@H](CCc3ccc(C(F)(F)F)c(CC)c3)C(=O)N2C1 [PP2672] | B (a compound having 3 or more and less than 10 is denoted as B) | B (a compound having 3 or more and less than 10 is denoted as B)
CCO[C@@H]1C[C@H]2C(=O)NC3(CCC3)C(=O)N(C)[C@@H](C3CCCC3)C(=O)N(C)[C@H](C(=O)N(C)C)CC(=O)N(C)[C@@H](CC3CCCC3)C(=O)N[C@@H]([C@@H](C)CC)C(=O)N(C)CC(=O)N(C)[C@H]3C/C=C\CCN(C3=O)[C@@H](Cc3ccc(C)cc3)C(=O)N(C)CC(=O)N[C@@H](CCc3cc(F)c(CC)c(OC)c3)C(=O)N2C1 [PP2674] | A (a compound having 10 or more and less than 20 is denoted as A) | A (a compound having 10 or more and less than 20 is denoted as A)
CCO[C@@H]1C[C@H]2C(=O)NC3(CCC3)C(=O)N(C)[C@@H](C3CCCC3)C(=O)N(C)[C@H](C(=O)N(C)C)CC(=O)N(C)[C@@H](CC3CCCC3)C(=O)N[C@@H]([C@@H](C)CC)C(=O)N(C)CC(=O)N(C)[C@H]3C/C=C\CCN(C3=O)[C@@H](Cc3ccc(C)cc3)C(=O)N(C)CC(=O)N[C@@H](CCc3cc(C)c(C(F)F)c(C)c3)C(=O)N2C1 [PP2675] | A (a compound having 10 or more and less than 20 is denoted as A) | A (a compound having 10 or more and less than 20 is denoted as A)
CCO[C@@H]1C[C@H]2C(=O)NC3(CCC3)C(=O)N(C)[C@@H](C3CCCC3)C(=O)N(C)[C@H](C(=O)N(C)C)CC(=O)N(C)[C@@H](CC3CCCC3)C(=O)N[C@@H]([C@@H](C)CC)C(=O)N(C)CC(=O)N(C)[C@H]3C/C=C\CCN(C3=O)[C@@H](Cc3ccc(C)cc3)C(=O)N(C)CC(=O)N[C@@H](CCc3cc(C)c(C(F)F)c(F)c3)C(=O)N2C1 [PP2676] | A (a compound having 10 or more and less than 20 is denoted as A) | A (a compound having 10 or more and less than 20 is denoted as A)
CCO[C@@H]1C[C@H]2C(=O)NC3(CCC3)C(=O)N(C)[C@@H](C3CCCC3)C(=O)N(C)[C@H](C(=O)N(C)C)CC(=O)N(C)[C@@H](CC3CCCC3)C(=O)N[C@@H]([C@@H](C)CC)C(=O)N(C)CC(=O)N(C)[C@H]3C/C=C\CCN(C3=O)[C@@H](Cc3ccc(C)cc3)C(=O)N(C)CC(=O)N[C@@H](CCc3cc(C)c(C(F)F)c(Cl)c3)C(=O)N2C1 [PP2677] | A (a compound having 10 or more and less than 20 is denoted as A) | A (a compound having 10 or more and less than 20 is denoted as A)
CCO[C@@H]1C[C@H]2C(=O)NC3(CCC3)C(=O)N(C)[C@@H](C3CCCC3)C(=O)N(C)[C@H](C(=O)N(C)C)CC(=O)N(C)[C@@H](CC3CCCC3)C(=O)N[C@@H]([C@@H](C)CC)C(=O)N(C)CC(=O)N(C)[C@H]3C/C=C\CCN(C3=O)[C@@H](Cc3ccc(C)cc3)C(=O)N(C)CC(=O)N[C@@H](CCc3cc(Cl)c(C(F)(F)F)c(Cl)c3)C(=O)N2C1 [PP2679] | A (a compound having 10 or more and less than 20 is denoted as A) | A (a compound having 10 or more and less than 20 is denoted as A)
CCO[C@@H]1C[C@H]2C(=O)NC3(CCC3)C(=O)N(C)[C@@H](C3CCCC3)C(=O)N(C)[C@H](C(=O)N(C)C)CC(=O)N(C)[C@@H](CC3CCCC3)C(=O)N[C@@H]([C@@H](C)CC)C(=O)N(C)CC(=O)N(C)[C@H]3C/C=C\CCN(C3=O)[C@@H](Cc3ccc(C)cc3)C(=O)N(C)CC(=O)N[C@@H](CCc3ccc(C(F)(F)F)c(C4CC4)c3)C(=O)N2C1 [PP2681] | A (a compound having 10 or more and less than 20 is denoted as A) | A (a compound having 10 or more and less than 20 is denoted as A)
CCO[C@@H]1C[C@H]2C(=O)NC3(CCC3)C(=O)N(C)[C@@H](C3CCCC3)C(=O)N(C)[C@H](C(=O)N(C)C)CC(=O)N(C)[C@@H](CC3CCCC3)C(=O)N[C@@H]([C@@H](C)CC)C(=O)N(C)CC(=O)N(C)[C@H]3C/C=C\CCN(C3=O)[C@@H](Cc3ccc(C)cc3)C(=O)N(C)CC(=O)N[C@@H](CCc3ccc(C4CC4)c(F)c3)C(=O)N2C1 [PP2683] | A (a compound having 10 or more and less than 20 is denoted as A) | A (a compound having 10 or more and less than 20 is denoted as A)
CCO[C@@H]1C[C@H]2C(=O)NC3(CCC3)C(=O)N(C)[C@@H](C3CCCC3)C(=O)N(C)[C@H](C(=O)N(C)C)CC(=O)N(C)[C@@H](CC3CCCC3)C(=O)N[C@@H]([C@@H](C)CC)C(=O)N(C)CC(=O)N(C)[C@H]3C/C=C\CCN(C3=O)[C@@H](Cc3ccc(C)cc3)C(=O)N(C)CC(=O)N[C@@H](CCc3ccc(C4CC4)c(Cl)c3)C(=O)N2C1 [PP2684] | A (a compound having 10 or more and less than 20 is denoted as A) | A (a compound having 10 or more and less than 20 is denoted as A)
CCO[C@@H]1C[C@H]2C(=O)NC3(CCC3)C(=O)N(C)[C@@H](C3CCCC3)C(=O)N(C)[C@H](C(=O)N(C)C)CC(=O)N(C)[C@@H](CC3CCCC3)C(=O)N[C@@H]([C@@H](C)CC)C(=O)N(C)CC(=O)N(C)[C@H]3C/C=C\CCN(C3=O)[C@@H](Cc3ccc(C)cc3)C(=O)N(C)CC(=O)N[C@@H](CCc3ccc(C4CC4)c(C)c3)C(=O)N2C1 [PP2685] | A (a compound having 10 or more and less than 20 is denoted as A) | A (a compound having 10 or more and less than 20 is denoted as A)
CCO[C@@H]1C[C@H]2C(=O)NC3(CCC3)C(=O)N(C)[C@@H](C3CCCC3)C(=O)N(C)[C@H](C(=O)N(C)C)CC(=O)N(C)[C@@H](CC3CCCC3)C(=O)N[C@@H]([C@@H](C)CC)C(=O)N(C)CC(=O)N(C)[C@H]3C/C=C\CCN(C3=O)[C@@H](Cc3ccc(C)cc3)C(=O)N(C)CC(=O)N[C@@H](CCc3ccc(CC)c(F)c3)C(=O)N2C1 [PP2686] | A (a compound having 10 or more and less than 20 is denoted as A) | A (a compound having 10 or more and less than 20 is denoted as A)
CCC[C@H]1C(=O)N[C@@H]([C@@H](C)CC)C(=O)N(C)CC(=O)N(C)[C@H]2C/C=C\CCN(C2=O)[C@@H](Cc2ccc(C)cc2)C(=O)N(C)CC(=O)N[C@@H](CCc2cc(F)c(C(F)(F)F)c(F)c2)C(=O)N2C[C@H](OCC)C[C@H]2C(=O)NC2(CC(C)(C)C2)C(=O)N(C)[C@@H](CC(C)(C)C)C(=O)N(C)[C@H](C(=O)N(C)C)CC(=O)N1C [PP2706] | A (a compound having 10 or more and less than 20 is denoted as A) | B (a compound having 3 or more and less than 10 is denoted as B)
CCCOC[C@H]1C(=O)N[C@@H]([C@@H](C)CC)C(=O)N(C)CC(=O)N(C)[C@H]2C/C=C\CCN(C2=O)[C@@H](Cc2ccc(C)cc2)C(=O)N(C)CC(=O)N[C@@H](CCc2cc(F)c(C(F)(F)F)c(F)c2)C(=O)N2C[C@H](OCC)C[C@H]2C(=O)NC2(CC(C)(C)C2)C(=O)N(C)[C@@H](CC(C)(C)C)C(=O)N(C)[C@H](C(=O)N(C)C)CC(=O)N1C [PP2708] | A (a compound having 10 or more and less than 20 is denoted as A) | A (a compound having 10 or more and less than 20 is denoted as A)
